From patent publication US12448518B2, “Phthalocyanine dye compounds, conjugates and methods of use thereof” (Rakuten Medical, Inc., priority 2020, dated 2025)

Experiments:
[1] = Singlet oxygen quantum yield, indirect method with chemical quencher (DPBF or ADMA); assay type: physicochemical
From the text: Photogeneration quantum yields of singlet oxygen (ΦΔ) were obtained by an indirect method, using either diphenylisobenzofuran (DBPF) or anthracene-9,10-bis-methylmalonate (ADMA) as chemical quenchers in either N,N-dimethylformamide or aqueous media, respectively. Typically, a solution of the phthalocyanine and the quencher was irradiated with a red LED lamp (670 nm) at 5 mW/cm^2. The initial DPBF or ADMA concentrations were kept the same for both the reference and the test samples. The degradation of the DPBF band at 414 nm or ADMA at 401 nm was monitored in a Varian Cary® 50 UV-Vis spectrophotometer, every five seconds in the case of DPBF (up to 30 seconds) and every minute in the case of ADMA (up to five minutes). ZnPc (ΦΔ=0.67) and AlPcSmix (ΦΔ=0.42) were used as references in N,N-dimethylformamide or aqueous media, respectively.
The relative method shown by Eq. (1) was employed for calculations of the ΦΔ:
[formula] where ΦΔ and ΦΔref are the ^1O2 generation quantum yields for the sample and reference, respectively, m and mref are the DPBF or ADMA photobleaching rates in the presence of the phthalocyanine of the invention and the reference, respectively, and I and Iref are the rates of light absorption by the phthalocyanine derivative and reference, respectively. Concentrations of the test compound and reference were chosen such that their respective absorptions at the irradiation wavelength were the same.

[2] = Kinetic (aqueous) solubility in pH 7.4 DPBS, UV quantification; settings: for Solubility* (kinetic): pH 7.4 DPBS, 4 hours, room temperature (25° C.), from 10 mM DMSO stock
BxPC3 cells = test: Cell killing of free dye PIT, CellTox Green Cytotoxicity Assay; assay type: cell-based; settings: BxPC3, 0.00137-1 μg/mL, 690 nm laser 64 J/cm^2, 24 hours after light
Experimental: The PIT killing activity of free dyes were evaluated using the molecules synthesized as Example 12 and Example 13. BxPC3 cells (#CRL-1687, ATCC, Manassas VA) were plated, 5,000 cells per well, in RPMI-1640 media supplemented with 10% FBS and 1% Penicillin/Streptomycin (complete culture media) in a deep-well 96-well plate. Following overnight incubation at 37° C., the culture media were removed and the cells were incubated in 100 μL complete media with 1, 0.333, 0.111, 0.03704, 0.01235, 0.00412, 0.00137, or 0 μg/mL Example 12, Example 13, or IRDye 700DX carboxylate (control) for one hour at 4° C. […]
The effect of different treatment regimens on cell death was measured using the CellTox™ Green Cytotoxicity Assay (Cat No: G8742, Promega, Madison, WI). […] The CellTox™ Green fluorescence signal was measured at 24 hours after light treatment using a fluorescence plate reader. The cells were then lysed with diluted lysis solution (Cat No: G1821, Promega, Madison, WI), incubated at 37° C. for 30 minutes, and the CellTox™ Green fluorescence signal was measured again post-lysis. The percentages of dead cells were calculated by taking the ratio between background (1× CellTox™ Green in complete culture media without cells)-subtracted CellTox™ Green signal per well prior to and post lysis and multiplying the ratio by 100.

[3] = reference in N,N-dimethylformamide; cited from earlier work
[4] = quencher ADMA, aqueous media, 670 nm LED 5 mW/cm^2, reference AlPcSmix

Row | Compound | ΦΔ (singlet oxygen quantum yield) [1, 4] | Solubility* (kinetic) [2] | further results
1 | C[Si](C)(CCC[N+](CCCS(=O)(=O)O)(CCCS(=O)(=O)O)CCCS(=O)(=O)O)O[Si-2]123(O[Si](C)(C)CCC[N+](CCCS(=O)(=O)O)(CCCS(=O)(=O)O)CCOCCOCCOCCC(=O)O)n4c5c6ccccc6c4N=C4c6ccccc6C(=[N+]41)N=c1c4ccccc4c(n12)=NC1=[N+]3C(=N5)c2ccccc21.[Na+].[Na+].[Na+].[Na+] [Example 19, Sodium 2-((19-((dimethyl(3-(tris(3-sulfonatopropyl)ammonio)propyl)silyl)oxy)-19H-6,11-(azeno)-17,21-(azeno[3]episoindoloazeno)benzo[7,8][1,3,5,10]tetraaza[2]silacycloundecino[4,3-a:11,1-a′]diisoindol-19-yl)oxy)-2-methyl-6,6-bis(3-sulfonatopropyl)-9,12,15-trioxa-6-aza-2-silaoctadecan-6-ium-18-oate] | B (>0.5) |  | solubility kinetic at 4 h ([2]; 25 °C, pH 7.4, aqueous buffer, kinetic from dmso stock): > 100 µg/mL
2 | 4-((6-((λ5-azaneyl)oxy)-6-oxohexyl)(4-(((λ5-azaneyl)oxy)sulfonyl)butyl)(3-(((19-(((3-(bis(4-(((λ5-azaneyl)oxy)sulfonyl)butyl)(4-sulfonatobutyl)ammonio)propyl)dimethylsilyl)oxy)-19H-6,11-(azeno)-17,21-(azeno[3]episoindoloazeno)benzo[7,8][1,3,5,10]tetraaza[2]silacycloundecino[4,3-a:11,1-a′]diisoindol-19-yl)oxy)dimethylsilyl)propyl)ammonio)butane-1-sulfonate [Example 13] | B (>0.5) | C (>100 μg/mL) | cell death after illumination (free dye) (BxPC3 cells): dose-dependent cytotoxicity
3 | C[Si](C)(CCCNC(=O)CCCN(CCCS(=O)(=O)O)CCCS(=O)(=O)O)O[Si]1(O[Si](C)(C)CCCNC(=O)COCC(=O)O)n2c3c4ccccc4c2N=C2N=C(N=c4c5ccccc5c(n41)=NC1=NC(=N3)c3ccccc31)c1ccccc12.N (centres unmarked) [Example 15, Ammonium 2-(2-((3-(((19-(((3-(4-(bis(3-sulfonatopropyl)ammonio)butanamido)propyl)dimethylsilyl)oxy)-19H-6,11-(azeno)-17,21-(azeno[1]episoindoloazeno)benzo[7,8][1,3,5,10]tetraaza[2]silacycloundecino[4,3-a:11,1-a′]diisoindol-19-yl)oxy)dimethylsilyl)propyl)amino)-2-oxoethoxy)acetate] |  | B (>1 μg/mL to ≤100 μg/mL) | 
4 | C[Si](C)(CCC[N+](CCCCS(=O)(=O)O)(CCCCS(=O)(=O)O)CCCCS(=O)(=O)O)O[Si-2]123(O[Si](C)(C)CCC[N+](CCCCS(=O)(=O)O)(CCCCS(=O)(=O)O)CCOCCOCCOCCC(=O)O)n4c5c6ccccc6c4N=C4c6ccccc6C(=[N+]41)N=c1c4ccccc4c(n12)=NC1=[N+]3C(=N5)c2ccccc21.[Na+].[Na+].[Na+].[Na+] [Example 17, Sodium 2-((19-((dimethyl(3-(tris(4-sulfonatobutyl)ammonio)propyl)silyl)oxy)-19H-6,11-(azeno)-17,21-(azeno[3]episoindoloazeno)benzo[7,8][1,3,5,10]tetraaza[2]silacycloundecino[4,3-a:11,1-a′]diisoindol-19-yl)oxy)-2-methyl-6,6-bis(4-sulfonatobutyl)-9,12,15-trioxa-6-aza-2-silaoctadecan-6-ium-18-oate] | B (>0.5) |  | 
5 | C[Si](C)(CCCNC(=O)COCC(=O)O)O[Si]1(O[Si](C)(C)CCCNC(=O)NCCS(=O)(=O)O)n2c3c4ccccc4c2N=C2N=C(N=c4c5ccccc5c(n41)=NC1=NC(=N3)c3ccccc31)c1ccccc12.N (centres unmarked) [Example 7, Ammonium 2-(2-((3-(((19-((dimethyl(3-(3-(2-sulfonatoethyl)ureido)propyl)silyl)oxy)-19H-6,11-(azeno)-17,21-(azeno[1]episoindoloazeno)benzo[7,8][1,3,5,10]tetraaza[2]silacycloundecino[4,3-a:11,1-a′]diisoindol-19-yl)oxy)dimethylsilyl)propyl)amino)-2-oxoethoxy)acetate] |  | A (≤1 μg/mL) | 
6 | [Zn+2].c1ccc2c(c1)-c1nc-2nc2[n-]c(nc3nc([n-]c4nc(n1)-c1ccccc1-4)-c1ccccc1-3)c1ccccc21 [ZnPc] |  |  | ΦΔ of reference [3]: 0.67
7 | 3-((6-((λ^5-azaneyl)oxy)-6-oxohexyl)(3-(((λ5-azaneyl)oxy)sulfonyl)propyl)(3-(((19-(((3-(bis(3-(((λ5-azaneyl)oxy)sulfonyl)propyl)(3-sulfonatopropyl)ammonio)propyl)dimethylsilyl)oxy)-19H-6,11-(azeno)-17,21-(azeno[3]episoindoloazeno)benzo[7,8][1,3,5,10]tetraaza[2]silacycloundecino[4,3-a:11,1-a′]diisoindol-19-yl)oxy)dimethylsilyl)propyl)ammonio)propane-1-sulfonate [Example 12] | B (>0.5) | C (>100 μg/mL) | cell death after illumination (free dye) (BxPC3 cells): dose-dependent cytotoxicity
8 | COCCOCCOCC(=O)NCCC[Si](C)(C)O[Si-2]123(O[Si](C)(C)CCCNC(=O)CCCCC(=O)O)n4c5c6ccccc6c4N=C4c6ccccc6C(=[N+]41)N=c1c4ccccc4c(n12)=NC1=[N+]3C(=N5)c2ccccc21 [Example 1, 6-((3-(dimethyl((19-((15-methyl-10-oxo-2,5,8-trioxa-11-aza-15-silahexadecan-15-yl)oxy)-19H-6,11-(azeno)-17,21-(azeno[3]episoindoloazeno)benzo[7,8][1,3,5,10]tetraaza[2]silacycloundecino[4,3-a:11,1-a′]diisoindol-19-yl)oxy)silyl)propyl)amino)-6-oxohexanoic acid] |  |  | ΦΔ (singlet oxygen quantum yield) ([1]; quencher DPBF, N,N-dimethylformamide, 670 nm LED 5 mW/cm^2, reference ZnPc): A (≤0.5)
9 | Ammonium 3-((4-((3-(((19-(((3-(2-(carboxymethoxy)acetamido)propyl)dimethylsilyl)oxy)-19H-6,11-(azeno)-17,21-(azeno[3]episoindoloazeno)benzo[7,8][1,3,5,10]tetraaza[2]silacycloundecino[4,3-a:11,1-a′]diisoindol-19-yl)oxy)dimethylsilyl)propyl)amino)-4-oxobutyl)bis(3-sulfopropyl)ammonio)propane-1-sulfonae [Example 5] | B (>0.5) |  | 
10 | C[Si](C)(CCCNC(=O)COCC(=O)O)O[Si]1(O[Si](C)(C)CCCNC(=O)NCC(S(=O)(=O)O)S(=O)(=O)O)n2c3c4ccccc4c2N=C2N=C(N=c4c5ccccc5c(n41)=NC1=NC(=N3)c3ccccc31)c1ccccc12.N (centres unmarked) [Example 8, Ammonium 2-(2-((3-(((19-(((3-(3-(2,2-disulfonatoethyl)ureido)propyl)dimethylsilyl)oxy)-19H-6,11-(azeno)-17,21-(azeno[1]episoindoloazeno)benzo[7,8][1,3,5,10]tetraaza[2]silacycloundecino[4,3-a:11,1-a′]diisoindol-19-yl)oxy)dimethylsilyl)propyl)amino)-2-oxoethoxy)acetate] |  | A (≤1 μg/mL) | 
11 | C[Si](C)(CCC[N+](CCCCS(=O)(=O)[O-])(CCCCS(=O)(=O)[O-])CCCCS(=O)(=O)[O-])O[Si@@]1(O[Si](C)(C)CCC[N+](CCCCS(=O)(=O)[O-])(CCCCS(=O)(=O)[O-])CCOCCOCCC(=O)[O-])n2c3c4ccccc4c2/N=C2N=C(/N=c4/c5ccccc5/c(n41)=N/C1=NC(=N\3)/c3ccccc31)c1ccccc1\2.[Na+].[Na+].[Na+].[Na+] [Example 18, Sodium 2-((19-((dimethyl(3-(tris(4-sulfonatobutyl)ammonio)propyl)silyl)oxy)-19H-6,11-(azeno)-17,21-(azeno[3]episoindoloazeno)benzo[7,8][1,3,5,10]tetraaza[2]silacycloundecino[4,3-a:11,1-a′]diisoindol-19-yl)oxy)-2-methyl-6,6-bis(4-sulfonatobutyl)-9,12-dioxa-6-aza-2-silapentadecan-6-ium-15-oate] | B (>0.5) | C (>100 μg/mL) | 
